Measurements taken from patent publication US4376773A, “10-Substituted 5-cyanomethylene-10,11-dihydro-dibenzo-[a,d]-cycloheptenes, their preparation, and therapeutic agents containing these compounds” (BASF Aktiengesellschaft, priority 1980, dated 1983).
Like-named read-outs stand apart in the source and are kept apart here.

What was measured:
[1] = system: orientation hypermotility; experiment: Sedative action: orientation hypermotility in mice; type: in vivo, mouse (female NMRI); conditions: for ED50: Mus musculus, 0.5 h, mice, oral, 30 min after administration, 50% decrease in orientation hypermotility vs placebo, read-out: Sedation ED 50%; for Sedation R.A. (relative activity): clozapine = 1.0
Procedure: 4-8 groups of 3 female NMRI mice are given the compound orally. The orientation hypermotility induced by a new environment is determined photoelectrically, 30 minutes after administration of the compound, for a period of 30 minutes. The ED50 is the dose which produces a decrease in orientation hypermotility by 50%, compared to control animals treated with placebo.

[2] = system: methamphetamine-antagonism (sniffing movements); experiment: Antimethamphetamine action: methamphetamine-induced sniffing movements; type: in vivo, rat; conditions: for ED50: ip, 0.5 h, rat, intraperitoneal, 30 min before methamphetamine 2.5 mg/kg i.v., read-out: Antimethamphetamine action ED 50%; for Antimethamphetamine action R.A. (relative activity): clozapine = 1.00
Procedure: Methamphetamine (2.5 mg/kg administered intravenously) regularly causes the following symptoms in rats: motor restlessness, searching and sniffing movements, bristling fur and tremor (Janssen et al., Arzneim.-Forsch./DrugRes. 13 (1963), 205; Randrug et al., Psychopharmacologia 11 (1967), 300). The test substances are administered intraperitoneally, 30 minutes before the methamphetamine. The criterion of whether a compound has an effect is whether the sniffing movements remain absent over 5 minutes' observation after the injection of methamphetamine. That dose is determined as the mean inhibitory dose (ED 50%) by means of Probit analysis which prevents the symptom in half the number of animals. Number of animals examined per dose: 10.

[3] = system: apomorphine-antagonism (mandibular movements); experiment: Antiapomorphine action: apomorphine-triggered mandibular movements; type: in vivo, rat (female Sprague-Dawley); conditions: for ED50: 1.5 h, read-out: Antiapomorphine action ED 50%; for Antiapomorphine action R.A. (relative activity): clozapine = 1.00
Procedure: The test substances are administered orally 90 minutes before the apomorphine.

death from physostigmine = experiment: Anticholinergic action: protection against physostigmine lethality; type: in vivo, mouse (female NMRI); conditions: mice, oral, 30 min before physostigmine 0.825 mg/kg s.c.; dose protecting 50% against death
Procedure: Groups of 10 female NMRI mice are given physostigmine subcutaneously, at a lethal dose (0.825 mg/kg). The test substances are administered orally 30 minutes before the administration of physostigmine.
The ED 50% is determined as the dose of compound which protects 50% of the animals against death from physostigmine.

Acute toxicity = conditions: mouse, in vivo, ip; mice, intraperitoneal; read-out: Toxicity LD 50
Procedure: Groups of 5-10 female NMRI mice are given the compounds intraperitoneally. The LD 50 is determined as the dose after which 50% of the treated animals die.

[4] = system: tonic extensor reflex on the rabbit gastrocnemius; experiment: Muscle-relaxing action: tonic extensor reflex; type: in vivo; conditions: for ED50: Oryctolagus cuniculus, rabbit, intravenous, dose reducing muscle activity to half, read-out: Muscle relaxation ED 50%; for Muscle relaxation R.A. (relative activity): clozapine = 1.0
Excerpt: The measurement is based on quantifying the tonic extensor reflex on the rabbit gastrocnemius (Teschendorf et al., Arch. Pharmacol. exp. Path. 266 (1970), 462). The rabbit is fixed in a special apparatus which permits bending the paw at the talocalcanean joint in a defined and reproducible manner. As a result of this bending, a tonic extensor reflex is triggered in the […]. The electrical activity of the muscle during contraction is registered and the individual pulses are counted. The extension (duration 5 s) is repeated at intervals of one minute. After a constant number of pulses has been reached (constituting the control value), the test compound is administered intravenously. The number of pulses after administration is related to the previous value. For each dose investigated, 4-6 animals are used. The ED 50% is the dose which reduces the muscle activity to half, based on the initial value.

[5] = rat, oral, 90 min before apomorphine 1.5 mg/kg s.c.

C[N+]1([O-])CCN(C2Cc3ccccc3C(=CC#N)c3ccccc32)CC1 (mixture of isomers) [Example 8, cis, trans-5-Cyanomethylene-10-(4-methyl-4-oxy-piperazin-1-yl)-10,11-dihydro-dibenzo[a,d]-cycloheptene. 1/2 H2 O]
ED50 [1]: 15.2 mg/kg
Sedation R.A. (relative activity) [1]: 0.31
ED50 [2]: 39 mg/kg
Antimethamphetamine action R.A. (relative activity) [2]: 0.95
ED50 [3, 5]: 7 mg/kg
Antiapomorphine action R.A. (relative activity) [3]: 1.14
ED50 protecting against physostigmine lethality (death from physostigmine): > 100
LD50 (Acute toxicity): > 100 mg/kg

N#CC=C1c2ccccc2CC(N2CCN(CCO)CC2)c2ccccc21 (mixture of isomers) [Example 7, cis,trans-5-Cyanomethylene-10-(N-β-hydroxyethyl-piperazin-1-yl)-10,11-dihydro-dibenzo[a,d]-cycloheptene. 1/2 H2 O]
ED50 [1]: 10 mg/kg
Sedation R.A. (relative activity) [1]: 0.47
ED50 [2]: 30 mg/kg
Antimethamphetamine action R.A. (relative activity) [2]: 1.23
ED50 protecting against physostigmine lethality (death from physostigmine): > 100
LD50 (Acute toxicity): > 100 mg/kg

CN1CCN(C2Cc3ccccc3C(=CC#N)c3ccccc32)CC1 (mixture of isomers) [Example 1, cis,trans-5-Cyanomethylene-10-(4-methyl-piperazin-1-yl)-10,11-dihydro-dibenzo[a,d]-cycloheptene. 1/2 H2 O]
ED50 [1]: 5.6 mg/kg
Sedation R.A. (relative activity) [1]: 0.85
ED50 [4]: 0.1 mg/kg
Muscle relaxation R.A. (relative activity) [4]: 0.46
ED50 [2]: 5.4 mg/kg
Antimethamphetamine action R.A. (relative activity) [2]: 6.85
ED50 protecting against physostigmine lethality (death from physostigmine): > 46.4
LD50 (Acute toxicity): > 100 mg/kg

CCN1CCN(C2Cc3ccccc3C(=CC#N)c3ccccc32)CC1 (mixture of isomers) [Example 5, cis,trans-5-Cyanomethylene-10-(4-ethyl-piperazin-1-yl)-10,11-dihydro-dibenzo[a,d]-cycloheptene. 1/2 H2 O]
ED50 [1]: 6.7 mg/kg
Sedation R.A. (relative activity) [1]: 0.71
ED50 [4]: 0.1 mg/kg
Muscle relaxation R.A. (relative activity) [4]: 0.46
ED50 [2]: 13 mg/kg
Antimethamphetamine action R.A. (relative activity) [2]: 2.85
ED50 protecting against physostigmine lethality (death from physostigmine): > 46.4
LD50 (Acute toxicity): > 100 mg/kg

CN1CCN(C2=Nc3ccccc3Cc3ccccc32)CC1 [Perlapine, perlapine, reference compound]
ED50 [1]: 2.01 mg/kg
Sedation R.A. (relative activity) [1]: 2.36
ED50 [4]: 0.1 mg/kg
Muscle relaxation R.A. (relative activity) [4]: 0.46
ED50 [2]: 31 mg/kg
Antimethamphetamine action R.A. (relative activity) [2]: 1.19
ED50 ([3]; Rattus norvegicus, po): 21.5 mg/kg
Antiapomorphine action R.A. (relative activity) [3]: 0.37

CN1CCN(C2=Nc3cc(Cl)ccc3Nc3ccccc32)CC1 [Clozapine, clozapine, reference compound]
Sedation R.A. (relative activity) [1]: 1.0
ED50 [4]: 0.046 mg/kg
Muscle relaxation R.A. (relative activity) [4]: 1.0
ED50 [2]: 37 mg/kg
Antimethamphetamine action R.A. (relative activity) [2]: 1.00
ED50 [3, 5]: 8 mg/kg
Antiapomorphine action R.A. (relative activity) [3]: 1.00

CN1CCN(C2Cc3cc(Cl)ccc3C(=CC#N)c3ccccc32)CC1 (mixture of isomers) [Example 4, cis,trans-2-Chloro-5-cyanomethylene-10-(4-methylpiperazin-1-yl)-10,11-dihydro-dibenzo[a,d]-cycloheptene]
ED50 [1]: 5.5 mg/kg
Sedation R.A. (relative activity) [1]: 0.86
ED50 [4]: 0.02 mg/kg
muscle-relaxing action compared with comparative substances ([4]; in words, vs clozapine and perlapine): markedly surpasses those of the comparative substances
Muscle relaxation R.A. (relative activity) [4]: 2.30
ED50 [2]: 4.6 mg/kg
Antimethamphetamine action R.A. (relative activity) [2]: 8.04
